Reference: ChEMBL document CHEMBL1201862, “PubChem BioAssay data set” (2004)
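Each compound was tested at five concentrations against cells in 96-well plates for 48 hours. GI50: concentration for 50% inhibition of growth.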 Active and inactive are the calls of the source. Cut-off read from the data, not from the text of the source: active = GI50 up to about 1.1 µM and inactive = higher.

Columns and labels:
Assay in all cases: NCI tumour cell line growth inhibition, 48 h
786-0 = system: 786-0
A549 = system: A549
ACHN = system: ACHN
CCRF-CEM = system: CCRF-CEM
COLO 205 = system: COLO 205
DLD-1 = system: DLD-1
DMS-114 = system: DMS-114
DMS-273 = system: DMS-273
EKVX = system: EKVX
HCC 2998 = system: HCC 2998
HCT-116 = system: HCT-116
HCT-15 = system: HCT-15
HL-60 = system: HL-60
HOP-62 = system: HOP-62
HOP-92 = system: HOP-92
HT-29 = system: HT-29
IGROV-1 = system: IGROV-1
K562 = system: K562
KM-20L2 = system: KM-20L2
KM12 = system: KM12
LOX IMVI = system: LOX IMVI
M14 = system: M14
M19-MEL = system: M19-MEL
MOLT-4 = system: MOLT-4
Malme-3M = system: Malme-3M
NCI-H23 = system: NCI-H23
NCI-H460 = system: NCI-H460
NCI-H522 = system: NCI-H522
OVCAR-3 = system: OVCAR-3
OVCAR-4 = system: OVCAR-4
OVCAR-5 = system: OVCAR-5
OVCAR-8 = system: OVCAR-8
RPMI-8226 = system: RPMI-8226
RXF 393 = system: RXF 393
SF-268 = system: SF-268
SF-295 = system: SF-295
SF-539 = system: SF-539
SK-MEL-28 = system: SK-MEL-28
SK-MEL-2 = system: SK-MEL-2
SK-MEL-5 = system: SK-MEL-5
SN12C = system: SN12C
SNB-19 = system: SNB-19
SNB-75 = system: SNB-75
SW-620 = system: SW-620
TK-10 = system: TK-10
U-251 = system: U-251
UACC-257 = system: UACC-257
UACC-62 = system: UACC-62
UO-31 = system: UO-31
XF498 = system: XF498
A498 = system: A498
CAKI-1 = system: CAKI-1
LXFL 529 = system: LXFL 529
SK-OV-3 = system: SK-OV-3
SNB-78 = system: SNB-78
SR = system: SR

`C#CN1C(=O)c2c(c(-c3ccccc3)c(-c3ccc(Oc4ccc(-c5c(-c6ccccc6)c6c(c(-c7ccccc7)c5-c5ccccc5)C(=O)N(C#C)C6=O)cc4)cc3)c(-c3ccccc3)c2-c2ccccc2)C1=O` was tested, and the GI50 (786-0) was > 100 µM (inactive), the GI50 (A549) was > 100 µM (inactive) and the GI50 (ACHN) was > 100 µM (inactive). For the same molecule, the GI50 (CCRF-CEM) was > 100 µM (inactive), the GI50 (COLO 205) was > 100 µM (inactive) and the GI50 (DLD-1) was > 100 µM (inactive). For the same molecule, the GI50 (DMS-114) was > 100 µM (inactive), the GI50 (DMS-273) was > 100 µM (inactive) and the GI50 (EKVX) was > 100 µM (inactive). For the same molecule, the GI50 (HCC 2998) was > 100 µM (inactive), the GI50 (HCT-116) was > 100 µM (inactive) and the GI50 (HCT-15) was 30.8 µM. For the same molecule, the GI50 (HL-60) was > 100 µM (inactive), the GI50 (HOP-62) was > 100 µM (inactive) and the GI50 (HOP-92) was 21.9 µM (inactive). The GI50 (HT-29) was > 100 µM (inactive), the GI50 (IGROV-1) was 72.6 µM (inactive) and the GI50 (K562) was > 100 µM (inactive). For the same molecule, the GI50 (KM-20L2) was > 100 µM (inactive), the GI50 (KM12) was > 100 µM (inactive) and the GI50 (LOX IMVI) was > 100 µM (inactive). The GI50 (M14) was 80.7 µM (inactive), the GI50 (M19-MEL) was > 100 µM (inactive) and the GI50 (MOLT-4) was > 100 µM (inactive). The GI50 (Malme-3M) was > 100 µM (inactive), the GI50 (NCI-H23) was > 100 µM (inactive) and the GI50 (NCI-H460) was > 100 µM (inactive). The GI50 (NCI-H522) was > 100 µM (inactive), the GI50 (OVCAR-3) was > 100 µM (inactive) and the GI50 (OVCAR-4) was > 100 µM (inactive). The GI50 (OVCAR-5) was > 100 µM (inactive), the GI50 (OVCAR-8) was > 100 µM (inactive) and the GI50 (RPMI-8226) was > 100 µM (inactive). For the same molecule, the GI50 (RXF 393) was 30.8 µM (inactive), the GI50 (SF-268) was > 100 µM (inactive) and the GI50 (SF-295) was > 100 µM (inactive). The GI50 (SF-539) was > 100 µM (inactive), the GI50 (SK-MEL-28) was > 100 µM (inactive) and the GI50 (SK-MEL-2) was > 100 µM (inactive). The GI50 (SK-MEL-5) was > 100 µM (inactive), the GI50 (SN12C) was 30.1 µM (inactive) and the GI50 (SNB-19) was > 100 µM (inactive). The GI50 (SNB-75) was > 100 µM (inactive), the GI50 (SW-620) was > 100 µM (inactive) and the GI50 (TK-10) was > 100 µM (inactive). For the same molecule, the GI50 (U-251) was > 100 µM (inactive), the GI50 (UACC-257) was > 100 µM (inactive) and the GI50 (UACC-62) was > 100 µM (inactive). The GI50 (UO-31) was > 100 µM (inactive) and the GI50 (XF498) was 23.2 µM (inactive).

With `CC1=NN(C(=O)c2ccc(Cl)cc2)C(=O)/C1=C/c1c(O)cc(O)c2ccccc12` the GI50 (786-0) was > 100 µM (inactive), the GI50 (A498) was > 100 µM (inactive) and the GI50 (A549) was > 100 µM (inactive). For the same molecule, the GI50 (ACHN) was > 100 µM (inactive), the GI50 (CAKI-1) was > 100 µM (inactive) and the GI50 (CCRF-CEM) was > 100 µM (inactive). For the same molecule, the GI50 (COLO 205) was > 100 µM (inactive), the GI50 (DLD-1) was > 100 µM (inactive) and the GI50 (DMS-114) was > 100 µM (inactive). The GI50 (EKVX) was > 100 µM (inactive), the GI50 (HCC 2998) was > 100 µM (inactive) and the GI50 (HCT-116) was > 100 µM (inactive). The GI50 (HL-60) was > 100 µM (inactive), the GI50 (HOP-62) was > 100 µM (inactive) and the GI50 (HOP-92) was > 100 µM (inactive). For the same molecule, the GI50 (HT-29) was > 100 µM (inactive), the GI50 (IGROV-1) was > 100 µM (inactive) and the GI50 (K562) was > 100 µM (inactive). For the same molecule, the GI50 (KM-20L2) was > 100 µM (inactive), the GI50 (KM12) was > 100 µM (inactive) and the GI50 (LOX IMVI) was > 100 µM (inactive). The GI50 (LXFL 529) was > 100 µM (inactive), the GI50 (M14) was > 100 µM (inactive) and the GI50 (M19-MEL) was > 100 µM (inactive). The GI50 (MOLT-4) was > 100 µM (inactive), the GI50 (Malme-3M) was > 100 µM (inactive) and the GI50 (NCI-H23) was > 100 µM (inactive). For the same molecule, the GI50 (NCI-H460) was > 100 µM (inactive), the GI50 (NCI-H522) was > 100 µM (inactive) and the GI50 (OVCAR-3) was > 100 µM (inactive). The GI50 (OVCAR-4) was > 100 µM (inactive), the GI50 (OVCAR-5) was > 100 µM (inactive) and the GI50 (OVCAR-8) was > 100 µM (inactive). For the same molecule, the GI50 (RPMI-8226) was > 100 µM (inactive), the GI50 (RXF 393) was > 100 µM (inactive) and the GI50 (SF-268) was > 100 µM (inactive). For the same molecule, the GI50 (SF-295) was > 100 µM (inactive), the GI50 (SF-539) was > 100 µM (inactive) and the GI50 (SK-MEL-28) was > 100 µM (inactive). For the same molecule, the GI50 (SK-MEL-2) was > 100 µM (inactive), the GI50 (SK-MEL-5) was > 100 µM (inactive) and the GI50 (SK-OV-3) was > 100 µM (inactive). For the same molecule, the GI50 (SN12C) was > 100 µM (inactive), the GI50 (SNB-19) was > 100 µM (inactive) and the GI50 (SNB-78) was > 100 µM (inactive). The GI50 (SW-620) was > 100 µM (inactive), the GI50 (TK-10) was > 100 µM (inactive) and the GI50 (U-251) was > 100 µM (inactive). The GI50 (UACC-257) was > 100 µM (inactive), the GI50 (UACC-62) was > 100 µM (inactive) and the GI50 (UO-31) was > 100 µM (inactive). The GI50 (XF498) was > 100 µM (inactive).

`COc1ccc2c(c1)CC[C@@H]1C2CC[C@]2(C)C(=O)N(CCN3CCCCC3)C(=O)CC12` (some centres not stated) was tested, and the GI50 (786-0) was > 100 µM (inactive), the GI50 (A498) was 36.4 µM (inactive) and the GI50 (ACHN) was > 100 µM (inactive). For the same molecule, the GI50 (CCRF-CEM) was 75.5 µM (inactive), the GI50 (COLO 205) was > 100 µM (inactive) and the GI50 (HCT-116) was > 100 µM (inactive). The GI50 (HL-60) was 21.6 µM (inactive), the GI50 (HOP-62) was > 100 µM (inactive) and the GI50 (HOP-92) was 44.5 µM (inactive). For the same molecule, the GI50 (HT-29) was 51.5 µM (inactive), the GI50 (IGROV-1) was > 100 µM (inactive) and the GI50 (K562) was 58.1 µM (inactive). The GI50 (KM-20L2) was 47.6 µM (inactive), the GI50 (KM12) was > 100 µM (inactive) and the GI50 (LXFL 529) was > 100 µM (inactive). The GI50 (M14) was 21.3 µM (inactive), the GI50 (M19-MEL) was 35.8 µM (inactive) and the GI50 (MOLT-4) was > 10 µM (inactive). For the same molecule, the GI50 (Malme-3M) was 57.3 µM (inactive), the GI50 (NCI-H23) was > 100 µM (inactive) and the GI50 (NCI-H460) was > 100 µM (inactive). For the same molecule, the GI50 (NCI-H522) was 78.9 µM (inactive), the GI50 (OVCAR-4) was > 100 µM (inactive) and the GI50 (OVCAR-5) was > 100 µM (inactive). For the same molecule, the GI50 (RPMI-8226) was 74.5 µM (inactive), the GI50 (RXF 393) was 31.9 µM (inactive) and the GI50 (SF-268) was > 100 µM (inactive). For the same molecule, the GI50 (SF-295) was > 100 µM (inactive), the GI50 (SF-539) was > 100 µM (inactive) and the GI50 (SK-MEL-28) was 34.8 µM (inactive). For the same molecule, the GI50 (SK-MEL-2) was 60.3 µM (inactive), the GI50 (SK-OV-3) was > 100 µM (inactive) and the GI50 (SNB-19) was > 100 µM (inactive). For the same molecule, the GI50 (SNB-75) was 58.5 µM (inactive), the GI50 (SNB-78) was > 100 µM (inactive) and the GI50 (SR) was 75.3 µM (inactive). The GI50 (U-251) was > 100 µM (inactive), the GI50 (UACC-257) was 44.3 µM (inactive) and the GI50 (UACC-62) was 21.2 µM (inactive). For the same molecule, the GI50 (UO-31) was 83.2 µM (inactive).
